Data published in article PMC9090415, “Discovery of small molecule inhibitors of Plasmodium falciparum apicoplast DNA polymerase” (Journal of Enzyme Inhibition and Medicinal Chemistry, 2022).

Biological target: P. falciparum apicoplast DNA polymerase (Pf-apPOL) (Plasmodium falciparum, UniProt Q8ILY1)
Test: Fluorescence-based high-throughput DNA polymerase assay (molecular beacon), primary screen and dose-response
Assay type: biochemical
Description: The HT assay employs a molecular beacon, a stem-loop DNA template with a Cy3 dye and the Black Hole Quencher on the 3′ and 5′ ends of the DNA, respectively. Pf-apPOL concentration is based on a calculated absorptivity of ε280 = 56750 M^−1 cm^−1. Reactions were carried out at 25 °C, using Corning 3575 […] (well-volume, 20 µL). Assays testing for compound inhibition composed of reaction buffer (pH 7.9 in 50 mM potassium acetate, 20 mM Tris-acetate and 10 mM magnesium acetate), Pf-apPOL (20 nM), DNA substrate (20 nM), dNTPs (6 µM), and compound (10 µM in DMSO). The DNA and nucleotide substrates (dNTPs) were at concentrations of 20 nM and 6 µM, respectively, in the assay. Pf-apPOL was incubated in the reaction buffer with dNTPs and the compound of interest (10 µM, in the assay) at 25 °C for 10 min. The DNA substrate was then added and the reaction was allowed to proceed for 90 min at 25 °C.
Each assay plate contained 16 negative controls (no Pf-apPOL, DMSO present) and 16 positive controls (Pf-apPOL present, no DMSO). The fluorescence of each well was determined using a BioTek Synergy Neo fluorescence plate reader using excitation and emission wavelengths of 555 and 570 nm, respectively.
In the above, Min is the average of fluorescence emission of the negative controls (substrate only), Max the average fluorescence emission from the positive controls (enzyme + substrate), and Test the emission from the assays in the presence of compounds (enzyme + compound + substrates). […] […] The IC50 of each compound was determined using Equation (2): (2) IC50= Vmax/(1+ (I/IC50)^n)
In the above, n measures cooperativity, with n > 1 indicating synergistic binding of more than a single molecule of the compound.
To identify apPOL inhibitors we utilised our previously developed high-throughput DNA polymerase assay. The HT assay is based on a molecular beacon DNA template that forms a stem-loop with a Cy3 dye and the Black Hole Quencher on the 3′ and 5′ ends of the DNA, respectively. DNA polymerase activity extends an annealed primer through the stem region, displacing the fluorophore from the quencher, thereby increasing its fluorescence (Figure 1(A)). The assay accurately recapitulates the kinetic behaviour of apPOL, as measured through more conventional low-throughput gel-based assays. The Z′ factor for the assay described here was 0.9 across all plates (data not shown).
Figure 1. High-throughput screening. (A) The fluorescent-based DNA polymerase assay used to screen the compound libraries. The DNA template strand is a hairpin loop with a primer annealed to the loop. The 3’ end of the primer is 11 bases away from the 6 bp duplex. Strand displacement activity of the DNA polymerase separates the Cy3 dye from the Black hole quencher leading to an increase in fluorescent signal. (B) The high-throughput assay workflow. The DNA polymerase is incubated with […] compound for 10 min prior to addition of the hairpin substrate. The reaction is quenched at 3 different time points and the fluorescent signal is measured and % inhibition is determined using the provided equation.

Chain of P. falciparum apicoplast DNA polymerase (Pf-apPOL) (Q8ILY1 entry or part of it): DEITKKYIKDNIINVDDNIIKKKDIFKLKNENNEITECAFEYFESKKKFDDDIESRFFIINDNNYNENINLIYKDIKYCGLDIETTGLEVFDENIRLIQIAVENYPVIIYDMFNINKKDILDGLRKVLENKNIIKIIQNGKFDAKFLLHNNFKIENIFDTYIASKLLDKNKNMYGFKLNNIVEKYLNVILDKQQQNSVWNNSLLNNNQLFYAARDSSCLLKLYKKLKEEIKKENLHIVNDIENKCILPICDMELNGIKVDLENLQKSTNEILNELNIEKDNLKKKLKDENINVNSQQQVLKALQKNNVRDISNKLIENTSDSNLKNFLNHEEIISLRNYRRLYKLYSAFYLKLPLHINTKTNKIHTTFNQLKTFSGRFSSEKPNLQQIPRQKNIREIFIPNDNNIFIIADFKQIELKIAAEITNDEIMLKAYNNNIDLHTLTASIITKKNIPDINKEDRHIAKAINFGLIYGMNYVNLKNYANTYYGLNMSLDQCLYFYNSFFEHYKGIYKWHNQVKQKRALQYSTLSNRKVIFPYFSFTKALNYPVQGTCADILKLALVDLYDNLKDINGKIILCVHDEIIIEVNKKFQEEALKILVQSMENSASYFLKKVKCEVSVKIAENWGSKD

Compound: O=C(Nc1nnc(-c2cccs2)o1)c1ccc([N+](=O)[O-])o1 [Molecule 74, O=C(c1ccc(o1)[N+](=O)[O-])Nc1nnc(o1)c1cccs1]
- DNA Pol ('DNA Pol'; screening value, unit not given; 90 min, 10 µM): 45
- % inhibition Apo pol 10' (DRC-1; 10'; concentration 2.5): 6.774%
- % inhibition Apo pol 10' (DRC-1; 10'; concentration 5): 8.378%
- % inhibition Apo pol 10' (DRC-1; 10'; concentration 10): 26.6912%
- % inhibition Apo pol 10' (DRC-1; 10'; concentration 20): 31.2083%
- % inhibition Apo pol 10' (DRC-1; 10'; concentration 40): 61.6111%
- % inhibition Apo pol 10' (DRC-1; 10'; concentration 80): 81.7408%
- % inhibition Apol 90' (DRC-1; 90'; concentration 2.5): 1.699%
- % inhibition Apol 90' (DRC-1; 90'; concentration 5): 1.687%
- % inhibition Apol 90' (DRC-1; 90'; concentration 10): 13.6974%
- % inhibition Apol 90' (DRC-1; 90'; concentration 20): 16.6576%
- % inhibition Apol 90' (DRC-1; 90'; concentration 40): 40.7668%
- % inhibition Apol 90' (DRC-1; 90'; concentration 80): 62.2777%
- % inhibition apPOL 180' (DRC-1; 180'; concentration 2.5): -4.1234%
- % inhibition apPOL 180' (DRC-1; 180'; concentration 5): -4.583%
- % inhibition apPOL 180' (DRC-1; 180'; concentration 10): 3.855%
- % inhibition apPOL 180' (DRC-1; 180'; concentration 20): 5.086%
- % inhibition apPOL 180' (DRC-1; 180'; concentration 40): 25.388%
- % inhibition apPOL 180' (DRC-1; 180'; concentration 80): 45.6773%
- % inhibition Apo pol 5' (DRC-2, 5', concentration 2.5): 3%
- % inhibition Apo pol 5' (DRC-2, 5', concentration 5): 14%
- % inhibition Apo pol 5' (DRC-2, 5', concentration 10): 30%
- % inhibition Apo pol 5' (DRC-2, 5', concentration 20): 41%
- % inhibition Apo pol 5' (DRC-2, 5', concentration 40): 61%
- % inhibition Apo pol 5' (DRC-2, 5', concentration 80): 70%
- % inhibition Apol 40' (DRC-2, 40', concentration 2.5): 1.79%
- % inhibition Apol 40' (DRC-2, 40', concentration 5): 13%
- % inhibition Apol 40' (DRC-2, 40', concentration 10): 27%
- % inhibition Apol 40' (DRC-2, 40', concentration 20): 36%
- % inhibition Apol 40' (DRC-2, 40', concentration 40): 61%
- % inhibition Apol 40' (DRC-2, 40', concentration 80): 78%
- % inhibition ApPOL 90' (DRC-2, 90', concentration 2.5): -0.446%
- % inhibition ApPOL 90' (DRC-2, 90', concentration 5): 12%
- % inhibition ApPOL 90' (DRC-2, 90', concentration 10): 24%
- % inhibition ApPOL 90' (DRC-2, 90', concentration 20): 32%
- % inhibition ApPOL 90' (DRC-2, 90', concentration 40): 57%
- % inhibition ApPOL 90' (DRC-2, 90', concentration 80): 79%
- % inhibition apPOL 180' (DRC-2, 180', concentration 2.5): -3.19%
- % inhibition apPOL 180' (DRC-2, 180', concentration 5): 7%
- % inhibition apPOL 180' (DRC-2, 180', concentration 10): 15%
- % inhibition apPOL 180' (DRC-2, 180', concentration 20): 20%
- % inhibition apPOL 180' (DRC-2, 180', concentration 40): 45%
- % inhibition apPOL 180' (DRC-2, 180', concentration 80): 76%
- % inhibition Apo pol 5' (conc 40 (unit not given); 5'; DRC-2): 61%
- % inhibition Apol 40' (conc 40 (unit not given); 40'; DRC-2): 61%
- DNA Pol (primary screen hit value, DNA Pol (186 hits); 90 min, 10 µM): 45

Compound: COc1ccccc1CCC(=O)N1CCc2c(nc3cc(-c4ccccc4)[nH]n3c2=O)C1 [Molecule 7]
- IC50 (supplemental file 2, sheet IC50 nontoxic compounds; Pf-apPOL): 7.2 µM

Compound: CS(=O)(=O)c1cccc(C(=O)Nc2nnc(-c3ccno3)o2)c1 [KU0171319]
- DNA Pol (186 hits, value of the hit list (primary screen); unit not given; 90 min, 10 µM): 45
- % inhibition Apo pol 10' (DRC-1; 10'; concentration 2.5): 6.657%
- % inhibition Apo pol 10' (DRC-1; 10'; concentration 5): 14.8177%
- % inhibition Apo pol 10' (DRC-1; 10'; concentration 10): 36.7259%
- % inhibition Apo pol 10' (DRC-1; 10'; concentration 20): 44.3674%
- % inhibition Apo pol 10' (DRC-1; 10'; concentration 40): 60.0862%
- % inhibition Apo pol 10' (DRC-1; 10'; concentration 80): 69.7787%
- % inhibition Apol 90' (DRC-1; 90'; concentration 2.5): -3.363%
- % inhibition Apol 90' (DRC-1; 90'; concentration 5): 1.476%
- % inhibition Apol 90' (DRC-1; 90'; concentration 10): 14.1125%
- % inhibition Apol 90' (DRC-1; 90'; concentration 20): 18.6112%
- % inhibition Apol 90' (DRC-1; 90'; concentration 40): 31.6807%
- % inhibition Apol 90' (DRC-1; 90'; concentration 80): 46.8389%
- % inhibition apPOL 180' (DRC-1; 180'; concentration 2.5): -9.274%
- % inhibition apPOL 180' (DRC-1; 180'; concentration 5): -6.316%
- % inhibition apPOL 180' (DRC-1; 180'; concentration 10): 0.8537%
- % inhibition apPOL 180' (DRC-1; 180'; concentration 20): 2.328%
- % inhibition apPOL 180' (DRC-1; 180'; concentration 40): 13.3473%
- % inhibition apPOL 180' (DRC-1; 180'; concentration 80): 27.8767%
- % inhibition Apo pol 5' (DRC-2, 5', concentration 2.5): 8%
- % inhibition Apo pol 5' (DRC-2, 5', concentration 5): 13%
- % inhibition Apo pol 5' (DRC-2, 5', concentration 10): 24%
- % inhibition Apo pol 5' (DRC-2, 5', concentration 20): 29%
- % inhibition Apo pol 5' (DRC-2, 5', concentration 40): 32%
- % inhibition Apo pol 5' (DRC-2, 5', concentration 80): 22%
- % inhibition Apol 40' (DRC-2, 40', concentration 2.5): 1.54%
- % inhibition Apol 40' (DRC-2, 40', concentration 5): 4.6%
- % inhibition Apol 40' (DRC-2, 40', concentration 10): 13%
- % inhibition Apol 40' (DRC-2, 40', concentration 20): 17%
- % inhibition Apol 40' (DRC-2, 40', concentration 40): 28%
- % inhibition Apol 40' (DRC-2, 40', concentration 80): 35%
- % inhibition ApPOL 90' (DRC-2, 90', concentration 2.5): -0.356%
- % inhibition ApPOL 90' (DRC-2, 90', concentration 5): 0.372%
- % inhibition ApPOL 90' (DRC-2, 90', concentration 10): 8%
- % inhibition ApPOL 90' (DRC-2, 90', concentration 20): 11%
- % inhibition ApPOL 90' (DRC-2, 90', concentration 40): 21%
- % inhibition ApPOL 90' (DRC-2, 90', concentration 80): 34%
- % inhibition apPOL 180' (DRC-2, 180', concentration 2.5): -5.4%
- % inhibition apPOL 180' (DRC-2, 180', concentration 5): -8%
- % inhibition apPOL 180' (DRC-2, 180', concentration 10): -3%
- % inhibition apPOL 180' (DRC-2, 180', concentration 20): -2.43%
- % inhibition apPOL 180' (DRC-2, 180', concentration 40): 7.43%
- % inhibition apPOL 180' (DRC-2, 180', concentration 80): 26%
- % inhibition Apo pol 5' (DRC-2; 5'; concentration 2.5): 8%
- % inhibition Apo pol 5' (DRC-2; 5'; concentration 5): 13%
- % inhibition Apol 40' (DRC-2; 40'; concentration 10): 13%
- % inhibition ApPOL 90' (DRC-2; 90'; concentration 10): 8%
- DNA Pol (primary screen value, 'DNA Pol' only; 90 min, 10 µM): 45
